# Test results: US20050159425A1, “Methods of therapy” (priority 2002, published 2005)
# Key:
# [1] = tested on: IL-10 release from U937 cells; assay: IL-10 release from U937 cells (ELISA); format: cell-based, human
# Protocol: U 937 cells were grown in RPMI (PAA Laboratories) medium with 10% fetal calf serum added (PAA Laboratories). 2×10^6 cells per flask were treated with prostaglandin E2 at 10^−6 Molar or with Rolipram (4×10^−6) for 24 hours. Medium was removed at 20 hours and analysed by ELISA. A capture antibody (Pharmingen) was coated onto 96 well plates and culture medium was added each well. A standard curve was created with recombinant IL-10 protein. After incubation and washing, a biotin labelled monoclonal antibody (Pharmingen) was added and following incubation and washing, peroxidase labelled streptavidin was added. After washing a tetramethyl benzidine substrate was added and colour developed in proportion to IL-10 in the original sample/standard. Colour was read using a plate photometer (Labsystems, Multiskan). Mean concentrations (N=3) in controls with no lipopolysaccharide (LPS) were […] and in the presence of LPS (100 nM) they were 43.9 […].
# The effect of PGE1, PGE2, 19 hydroxy PGE1 and 19 hydroxy PGE2 on the stimulation of IL-10 in the presence and absence of rolipram was investigated as described above in Example 2. IL-10 levels were measured using an ELISA assay (R&D Ltd, Oxford). Measurement was performed according to the manufacturer's instructions.
# [2] = tested on: phosphodiesterase IV b mRNA; assay: phosphodiesterase IV-b mRNA in U937 cells (Taqman); format: cell-based, human; conditions: four hours of incubation; for PDE activity (phosphodiesterase IV b mRNA) after application: PGE 1×10^−6, 19-hydroxy PGE2 5×10^−6, without rolipram
# Protocol: Template was amplified in a Taqman 7700 machine for 40 cycles using FAM/TAMRA dyes on the probe. The Applied Biosystems kit was used to amplify and detect ribosomal (18S)RNA (using VIC/TAMRA dyes) as an internal control in the same reaction tube. After 40 cycles the Ct (related to cycle number at which signal appears) for the FAM and the 18S (VIC) were recorded and […] relative quantitation was achieved using the formula 2^−ΔΔCt where Δ refers to the difference between the FAM and VIC signal related to an standard comparator included in each run.
# The mRNA for phosphodiesterase IV-b was measured as described in Example 2 above. mRNA was extracted after four hours of incubation. The concentration of the PGE was 1×10^−6 and that of the 19-hydroxy PGE2 was 5×10^−6. The following primers and Taqman probe were used for quantitation of PDE IV b mRNA.
# [3] = tested on: monocyte/macrophages stimulated with lipopolysaccharide (LPS); conditions: cited from earlier work
# type IV PDE = conditions: cited from earlier work; for IC50: type IV PDE selective inhibitor
# [4] = in vivo; cited from earlier work
# PDE = conditions: cited from earlier work
molecule,measurement,setting,value
"CCCCC[C@H](O)/C=C/[C@H]1[C@H](O)CC(=O)[C@@H]1C/C=C\CCCC(=O)O [PGE2, prostaglandin E2]",effect on release of IL-10 in combination with PDE inhibitor rolipram,[1]; combination with rolipram,synergistic
same,stimulation of IL-10 in the presence of a PDE inhibitor,[1],increased strikingly
same,PDE activity (phosphodiesterase IV b mRNA) after application,[2],increase
same,PDE message levels with a type IV selective PDE inhibitor,[2]; with type IV selective PDE inhibitor (rolipram),increases PDE message levels even further
"COc1ccc(C2CNC(=O)C2)cc1OC1CCCC1 (stereo not shown) [rolipram, 4-[3-cyclopentyloxy-4-methoxyphenyl]-2-pyrrolidinone]",IL-10 levels,[3],raise
same,cAMP levels,[3],raise
same,IC50,type IV PDE,0.8 µM
"CCCCC(C)(O)CC=C[C@H]1[C@H](O)CC(=O)[C@@H]1CCCCCCC(=O)OC (mixture of isomers) [Cytotec, (±) methyl 11α, 16-dihydroxy-16-methyl-9-oxoprost-13-enoate]",hypotension,[4],does not cause hypotension
"CC(C)Cn1c(=O)n(C)c(=O)c2[nH]cnc21 [IBMX, 3-isobutyl-1-methylxanthine]",IC50,PDE; non-specific PDE inhibitor,2 to 50 µM
COc1ccc(C2CNC(=O)NC2)cc1O[C@H]1C[C@@H]2CC[C@H]1C2 [CP 80 633],type IV PDE inhibition,type IV PDE,potent type IV inhibitors
Cn1c(=O)c2c(ncn2C)n(C)c1=O [caffeine],activity as non-specific PDE inhibitor,"PDE; compared with theophylline, IBMX and pentoxifylline",not as active as the others
19-hydroxy PGE2,concentration necessary to achieve similar effects to PGE,[1]; compared with PGE,higher concentration
same,stimulation of IL-10 in the presence of a PDE inhibitor,[1],increased strikingly
same,PDE activity (phosphodiesterase IV b mRNA) after application,[2],increase
"CCCCOc1cc(CC2CNC(=O)N2)ccc1OC (stereo not shown) [Ro-20-1724, 4-[3-butoxy-4-methoxybenzyl]-2-imidazolidinone]",IC50,type IV PDE,2 µM
Cn1c(=O)c2[nH]cnc2n(C)c1=O [theophylline],times less effective than rolipram,type IV PDE; non-selective inhibitor compared with rolipram,30 times
